US11028079B2 (ConverGene LLC, priority 2015, dated 2021)

molecular target: T1, BRD4 bromodomains (Homo sapiens, UniProt O60885); test: BROMOscan bromodomain competition binding assay (DiscoveRx); conditions: Kd from 11 compound concentrations ranging from 0 to 10 μM, read-out: BROMOscan Relative Activity
T1 construct: fused on or other part: T7 phage capsid protein (phage-display fusion; the phage DNA is read out by qPCR)
In short: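 Compounds in 0.1% DMSO/0.9% MEG competed with a solid-phase acetylated peptide for T7 phage-fused BRD4 bromodomains, with the retained bromodomain measured by qPCR.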

| Kd [nM] | SMILES |
| --- | --- |
| < 500 | Cc1noc(C)c1-c1ccc2nc(N3CCC(CN(C)C)CC3)nc(NCc3cccc(Cl)c3)c2c1 [Example 41, N-(3-chlorobenzyl)-2-(4-((dimethylamino)methyl)piperidin-1-yl)-6-(3,5-dimethylisoxazol-4-yl)quinazolin-4-amine] |
| < 500 | Cc1n[nH]c(C)c1CNC(=O)c1nc(NCc2cccc(Cl)c2)c2cc(-c3c(C)noc3C)ccc2n1 [Example 257, 4-((3-chlorobenzyl)amino)-N-((3,5-dimethyl-1H-pyrazol-4-yl)methyl)-6-(3,5-dimethylisoxazol-4-yl)quinazoline-2-carboxamide] |
| < 500 | Cc1noc(C)c1-c1ccc2nc(N3CCN(CCN(C)C)CC3)nc(NCc3ccccc3Cl)c2c1 [Example 74, N-(2-chlorobenzyl)-2-(4-(2-(dimethylamino)ethyl)piperazin-1-yl)-6-(3,5-dimethylisoxazol-4-yl)quinazolin-4-amine] |
| > 5000 | Cc1noc(C)c1-c1ccc2nc(NCc3ccc(Cl)cc3)nc(NCc3cccc(Cl)c3)c2c1 [Example 167, N4-(3-chlorobenzyl)-N2-(4-chlorobenzyl)-6-(3,5-dimethylisoxazol-4-yl)quinazoline-2,4-diamine] |
| < 500 | Cc1noc(C)c1-c1ccc2nc(N3CCC(S(C)(=O)=O)CC3)nc(NCc3cccc(Cl)c3)c2c1 [Example 153, N-(3-chlorobenzyl)-6-(3,5-dimethylisoxazol-4-yl)-2-(4-(methylsulfonyl)piperidin-1-yl)quinazolin-4-amine] |
| < 500 | Cc1noc(C)c1-c1ccc2nc(N3CCN(CCN(C)C)CC3)nc(NCc3cccnc3)c2c1 [Example 80, 2-(4-(2-(dimethylamino)ethyl)piperazin-1-yl)-6-(3,5-dimethylisoxazol-4-yl)-N-(pyridin-3-ylmethyl)quinazolin-4-amine] |
| < 500 | Cc1noc(C)c1-c1ccc2nc(C(=O)NCc3ccncc3F)nc(NCc3cccc(Cl)c3)c2c1 [Example 215, 4-((3-chlorobenzyl)amino)-6-(3,5-dimethylisoxazol-4-yl)-N-((3-fluoropyridin-4-yl)methyl)quinazoline-2-carboxamide] |
| < 500 | Cc1nc(CNC(=O)c2nc(NCc3cccc(Cl)c3)c3cc(-c4c(C)noc4C)ccc3n2)cs1 [Example 196, 4-((3-chlorobenzyl)amino)-6-(3,5-dimethylisoxazol-4-yl)-N-((2-methylthiazol-4-yl)methyl)quinazoline-2-carboxamide] |
| < 500 | Cc1noc(C)c1-c1ccc2nc(N3CCN(S(C)(=O)=O)CC3)nc(NCc3cccc(Cl)c3)c2c1 [Example 155, N-(3-chlorobenzyl)-6-(3,5-dimethylisoxazol-4-yl)-2-(4-(methylsulfonyl)piperazin-1-yl)quinazolin-4-amine] |
| > 5000 | Cc1noc(C)c1-c1cc(NCc2cccc(Cl)c2)c2cc(Br)ccc2n1 [Example 15, 6-bromo-N-(3-chlorobenzyl)-2-(3,5-dimethylisoxazol-4-yl)quinolin-4-amine] |
| < 500 | Cc1noc(C)c1-c1ccc2nc(-c3cnn(CCO)c3)nc(NCc3cncc(Cl)c3)c2c1 [Example 144, 2-(4-(4-(((5-chloropyridin-3-yl)methyl)amino)-6-(3,5-dimethylisoxazol-4-yl)quinazolin-2-yl)-1H-pyrazol-1-yl)ethanol] |
| < 500 | Cc1noc(C)c1-c1ccc2nc(N3CCN(CCN(C)C)CC3)nc(NCc3cc(Cl)ccn3)c2c1 [Example 82, N-((4-chloropyridin-2-yl)methyl)-2-(4-(2-(dimethylamino)ethyl)piperazin-1-yl)-6-(3,5-dimethylisoxazol-4-yl)quinazolin-4-amine] |
| 500 to 5000 | Cc1noc(C)c1-c1ccc2nc(C(=O)N3CCc4cnn(C)c4C3)nc(N3CCOC[C@@H]3c3ccccc3)c2c1 [Example 317, (S)-(6-(3,5-dimethylisoxazol-4-yl)-4-(3-phenylmorpholino)quinazolin-2-yl)(1-methyl-1,4,5,7-tetrahydro-6H-pyrazolo[3,4-c]pyridin-6-yl)methanone] |
| < 500 | Cc1noc(C)c1-c1ccc2nc(N3CCN(S(C)(=O)=O)CC3)nc(NC3(c4cccc(Cl)c4)CC3)c2c1 [Example 180, N-(1-(3-chlorophenyl)cyclopropyl)-6-(3,5-dimethylisoxazol-4-yl)-2-(4-(methylsulfonyl)piperazin-1-yl)quinazolin-4-amine] |
| < 500 | Cc1noc(C)c1-c1ccc2nc(N3CCN(CCO)CC3)nc(NCc3cncc(Cl)c3)c2c1 [Example 120, 2-(4-(4-(((5-chloropyridin-3-yl)methyl)amino)-6-(3,5-dimethylisoxazol-4-yl)quinazolin-2-yl)piperazin-1-yl)ethanol] |
| < 500 | Cc1noc(C)c1-c1ccc2nc(C(=O)N[C@H]3CC[C@H](O)CC3)nc(NCc3cccc(Cl)c3)c2c1 [Example 250, 4-((3-chlorobenzyl)amino)-6-(3,5-dimethylisoxazol-4-yl)-N-((trans)-4-hydroxycyclohexyl)quinazoline-2-carboxamide] |
| < 500 | Cc1nc(C)c(CNC(=O)c2nc(NCc3cccc(Cl)c3)c3cc(-c4c(C)noc4C)ccc3n2)s1 [Example 260, 4-((3-chlorobenzyl)amino)-6-(3,5-dimethylisoxazol-4-yl)-N-((2,4-dimethylthiazol-5-yl)methyl)quinazoline-2-carboxamide] |
| < 500 | CCNC(=O)N1CCN(c2nc(N3CCOC[C@@H]3c3ccccc3)c3cc(-c4c(C)noc4C)ccc3n2)CC1 [Example 299, (S)-4-(6-(3,5-dimethylisoxazol-4-yl)-4-(3-phenylmorpholino)quinazolin-2-yl)-N-ethylpiperazine-1-carboxamide] |
| 500 to 5000 | Cc1noc(C)c1-c1ccc2nc(N3CCN(CCN(C)C)CC3)nc(NCc3ccc(Cl)cc3)c2c1 [Example 95, N-(4-chlorobenzyl)-2-(4-(2-(dimethylamino)ethyl)piperazin-1-yl)-6-(3,5-dimethylisoxazol-4-yl)quinazolin-4-amine] |
| < 500 | Cc1noc(C)c1-c1ccc2nc(N3CCN(C(=O)N(C)C)CC3)nc(NCc3cncc(Cl)c3)c2c1 [Example 248, 4-(4-(((5-chloropyridin-3-yl)methyl)amino)-6-(3,5-dimethylisoxazol-4-yl)quinazolin-2-yl)-N,N-dimethylpiperazine-1-carboxamide] |
| < 500 | Cc1noc(C)c1-c1ccc2nc(C(=O)NCc3cccnc3)nc(NCc3cccc(Cl)c3)c2c1 [Example 189, 4-((3-chlorobenzyl)amino)-6-(3,5-dimethylisoxazol-4-yl)-N-(pyridin-3-ylmethyl)quinazoline-2-carboxamide] |
| < 500 | CC(=O)N1CCN(c2nc(NCc3cncc(Cl)c3)c3cc(-c4c(C)noc4C)ccc3n2)CC1 [Example 195, 1-(4-(4-(((5-chloropyridin-3-yl)methyl)amino)-6-(3,5-dimethylisoxazol-4-yl)quinazolin-2-yl)piperazin-1-yl)ethanone] |
| 500 to 5000 | Cc1noc(C)c1-c1ccc2ncnc(Nc3ccc(Cl)cc3)c2c1 [Example 158, N-(4-chlorophenyl)-6-(3,5-dimethylisoxazol-4-yl)quinazolin-4-amine] |
| < 500 | Cc1noc(C)c1-c1ccc2nc(C(=O)NC3CCN(C)CC3)cc(NCc3cccc(Cl)c3)c2c1 [Example 228, 4-((3-chlorobenzyl)amino)-6-(3,5-dimethylisoxazol-4-yl)-N-(1-methylpiperidin-4-yl)quinoline-2-carboxamide] |
